Reference: patent US20230365673A1, “MEANS FOR REDUCING RADIO- AND CHEMOTHERAPY RESISTANCE AND ADVERSE EFFECTS” (JOHANN WOLFGANG GOETHE-UNIVERSITÄT FRANKFURT AM MAIN, priority 2020, published 2023)

Tests used:
[1] = test system: human intestinal fibroblasts; experiment: SA-β-gal staining of irradiated (3×2 Gy) fibroblasts pre-conditioned with IL-1RA low organoid medium; format: cell-based; conditions: IL-1RA low conditioned medium, anakinra 20 μg/mL, 72 h
Source text: (A and B) Quantification of IL-1 and IL-1RA baseline serum levels in non-pCR (n=25) and pCR (n=7) patients before CRT. Data are mean±SD. ** p<0.01 by t-test. (C) IL-1RA serum level association with two SNPs: rs4251961 (T/C) and rs579543 (A/G) using DNA isolated from patients (n=31) pre-CRT peripheral blood mononuclear cells. Data are mean±SD. ** p=0.0052 by t-test. (D) Kaplan-Meier DFS curve of patients with high (n=37) and low (n=37) IL-1RN expression score (median split) based on the RNA sequencing data of pre-CRT biopsies. * p<0.05 by Log-rank (Mantel-Cox) test. […] (H) Paired analysis of sirius red staining of non-pCR patients (n=11) pre versus post-CRT. Scale bars=300 μm. (I) Paired quantification of p21 immunohistochemistry staining of non-pCR patients (n=10) pre versus post CRT. (J) Correlation analysis of pre-CRT serum IL-1RA levels with ratio of p21 induction (post/pre-CRT p21 RNA expression level) (n=10 non pCR patients). * p<0.05 by Spearman r correlation test. […] (M) Nitrite concentration determined by Griess assay in supernatants from WT, IL-1RA high & IL-1RA low conditioned media treated human fibroblasts for 72 h (n=13 independent wells per group). […] (N) Nitrite concentration determined by Griess assay in supernatants from untreated and IL-1α (1 μg/mL) stimulated human fibroblasts for 72 h (n=32 independent wells per group representing 3 independent experiments). […]

colon fibroblasts [2] = experiment: Nitrite concentration by Griess assay in fibroblast supernatants; format: cell-based, mouse; conditions: recombinant IL-1α 1 μg/mL, 72 hours
Method: (§1) (A) Schematic illustration of APTKA organoids supernatant collection and treatment of colon fibroblasts from unchallenged wildtype C57BL/6 mice for 12 h followed by 3×2 Gy irradiation. Microscopic, proteomic & transcriptomic analysis were performed 72 h post first irradiation. (B) Microscopic captures of non-irradiated wildtype (WT) and APTKA conditioned fibroblasts. Remaining captures belong to irradiated fibroblasts: WT, IL-1α (1 μg/mL) stimulated WT, and APTKA conditioned media minus or plus anakinra (20 μg/mL) treated fibroblasts. Scale bars=200 μm. (C) Mass spectrometric analysis of matrisome profiles of 3×2 Gy irradiated (n=8) and non-irradiated (n=8) APTKA conditioned fibroblasts. […] (G) Immunoblot analysis of untreated and irradiated APTKA conditioned fibroblasts. Representative results from one experiment which has been independently repeated 2 times. (H) SA-ß gal staining of untreated and irradiated APTKA fibroblasts. Scale bars=100 μm. (I and J) p21 and pH2AX immunofluorescent staining of untreated and irradiated APTKA fibroblasts. Scale bars=[…]. Data are mean±SD. ** […] and *** p<0.001 by t-test. (K) Nitrite concentration determined by Griess assay in conditioned media from WT, APTK media, APTKA media, IL-1α (1 μg/mL) stimulated and APTKA plus anakinra (20 μg/mL) treated fibroblasts for 72 h (n=10 independent wells per group). […]

colon fibroblasts [3] = experiment: Oxidative DNA damage by 8-OHdG immunofluorescence in fibroblasts; format: cell-based, mouse; conditions: recombinant IL-1α 1 μg/mL, 72 hours
Method: as §1

Substance	senescence induction upon irradiation (SA-β-gal staining) [1]	nitrite levels in fibroblast supernatants (colon fibroblasts [2])	oxidative DNA damage (8-OHdG immunofluorescence) (colon fibroblasts [3])
anakinra: Kineret®, an interleukin-1 receptor antagonist	could be blocked by anakinra		
recombinant IL-1α: recombinant cytokine used to stimulate fibroblasts		significantly elevated	increase in oxidative DNA damage
